Ends that are not written are not given here.
Assays:
[1] = tested on: human platelets; assay: Human platelet aggregation to thrombin; type: cell-based; conditions: thrombin greater than 11 nM; RWJ-56110 supplemented with PAR1-blocking antibody plus bivalirudin
[2] = tested on: mice subjected to cecal ligation and puncture (CLP); assay: CLP sepsis: BAL neutrophils and lung histology; type: in vivo
Procedure: Adult respiratory […] syndrome (ARDS) results from excessive neutrophil infiltration into lungs and their activation, leading to fibrin deposition. Sepsis can cause ARDS, which has a high lethality. Panels A and B: Mice were sacrificed 24 hours after CLP and BAL was performed. Neutrophils were counted after staining with Giemsa, TNF was measured by ELISA. *p<0.02 vs. vehicle treated group. C Lung histology. Mice were sacrificed 48 hours after CLP.
Blockade of CXCR1/2 signaling with pepducins reversed several criteria of established SIRS in the septic mice. First, the effect of CXCR1/2 pepducins on systemic KC levels, the mouse IL-8 ortholog was examined. In untreated mice, KC levels rose over the 16 h period after CLP and remained elevated for at least 48 h. Following administration of the CXCR1/2 pepducins at the 8 h time point, the systemic KC levels rapidly dropped and remained low thereafter. Many of the untreated CLP mice became tachypnic and hypoxemic as early as 24 h and this correlated well with mortality. During sepsis, bacterial endotoxin stimulates lung epithelia to secrete IL-8 which recruits and activates leukocytes. The resulting neutrophil margination eventually leads to lung damage. The number of neutrophils in the bronchioalveolar lavage (BAL) fluid of untreated mice increased by 100-fold as early as 4 h after CLP and then rose to 200-300 fold after 8 h. […]

[3] = tested on: healthy untreated mice; assay: Peripheral leukocyte counts in healthy mice; type: in vivo; conditions: sub-Q once per day 2.5 mg/kg day 1, 1.0 mg/kg days 2-6, one week
Procedure: (§1) The long-term effects of the chemokine pepducins on peripheral leukocyte counts were assessed in healthy untreated mice. Pepducins were injected once per day sub-Q (2.5 mg/kg day 1, 1.0 mg/kg days 2-6) and circulating leukocyte levels measured over a one week period. […] The effects of the chemokine pepducins on peripheral leukocyte count were quite similar in septic mice subjected to cecal ligation and puncture (CLP).

[4] = tested on: mice subjected to cecal ligation and puncture (CLP); assay: CLP sepsis: bleeding time, D-dimer, platelet counts (DIC); type: in vivo
Procedure: Systemic inflammatory responses, the derangement of coagulation and fibrinolysis in DIC is mediated by several pro-inflammatory cytokines. Changes in bleeding time and increases in D-dimer, which is a product of excessive counter-regulatory fibrinolysis, is a hallmark of disseminated intravascular coagulation, leading to widespread deposition of fibrin in the circulation, contributing to multi organ failure and death in septic patients. […] A. Bleeding time was measured 24 h after CLP and immediate onset of treatment. […] B. D-dimer levels were measured 48 hours after CLP. As a surrogate marker of the amount of fibrin deposition, D-dimer was increased after CLP, to a higher extent in vehicle-treated mice than in CXCR2 pepducin-treated mice. C. Depicts the bleeding time of mice that were treated 8 h after CLP. D. Depicts the D-dimer levels of mice treated 8 h after CLP.
Therefore, systemic platelet activation was observed by measuring platelet counts and D-dimer levels, a marker of the increased fibrin production and subsequent fibrinolysis that occurs during DIC. […] When the CXCR1/2 pepducin treatment was delayed until 8 h after the CLP procedure, D-dimer levels were still reduced by 60-70%.

[5] = biological target: T1, CXCR4 (Homo sapiens, UniProt P61073)
Target sequence in this assay (P61073 whole entry): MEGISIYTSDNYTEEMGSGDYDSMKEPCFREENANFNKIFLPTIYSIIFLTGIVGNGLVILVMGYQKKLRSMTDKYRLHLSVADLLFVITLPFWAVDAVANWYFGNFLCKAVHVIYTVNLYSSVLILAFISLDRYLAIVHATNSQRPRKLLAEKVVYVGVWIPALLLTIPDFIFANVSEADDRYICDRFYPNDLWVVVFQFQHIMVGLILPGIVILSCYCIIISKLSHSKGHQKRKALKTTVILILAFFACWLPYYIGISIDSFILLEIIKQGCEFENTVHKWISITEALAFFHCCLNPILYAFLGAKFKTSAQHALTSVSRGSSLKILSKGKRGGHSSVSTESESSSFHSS

[6] = tested on: mice subjected to cecal ligation and puncture (CLP); assay: CLP sepsis: peripheral leukocyte count; type: in vivo; conditions: septic mice after CLP, once per day administration, blood 1-17 days
Text: It has been shown that SDF-1α and CXCR4 are involved in recruiting immature neutrophils from the bone marrow. High levels of CXCR4 expression and activation lead to homing of senescent neutrophils to the bone marrow, whereas chemokines acting on the CXCR2 receptors of neutrophils, i.e., KC, Gro-α or IL-8, lead to increased neutrophil mobilization. Blood was drawn 1, 3, 5, 7 and 17 days after CLP, and leukocytes were counted. An initial decrease in leukocytes in vehicle-treated mice was observed. […] This observation would match previous reports where either blocking of CXCR4 or stimulation of CXCR2 lead to neutrophilia in the peripheral blood of mice.
as §1

[7] = biological target: T1, CXCR4; conditions: CXCR4 co-expressed with CXCR1 or CXCR2
Target sequence in this assay (P61073 whole entry, species assumed): as the sequence (P61073 whole entry) above

[8] = tested on: thioglycollate peritonitis model in mice; assay: Thioglycollate peritonitis model: leukocyte recruitment into the peritoneal cavity; type: in vivo
Procedure: Mice were injected with 1 mL of 3% thioglycollate i.p. Thioglycollate induces peritoneal macrophages to secret cytokines and leukocytes are then recruited into the peritoneal cavity. Pepducins were injected i.v. at the indicated doses. After 4 hours, cells were collected by peritoneal lavage, stained with Giemsa and counted under 40× magnification. N=60.
The effects of the CXCR1/2 and CXCR4 pepducins on neutrophil homeostasis under normal versus pro-inflammatory conditions in mice were evaluated. Leukocyte recruitment was first assessed in a thioglycollate peritonitis model.

[9] = tested on: mice subjected to cecal ligation and puncture (CLP); assay: CLP sepsis: plasma liver enzyme levels (AST, ALT); type: in vivo; conditions: for plasma levels of ALT: 24 hours after CLP
Procedure: Since organ failure determines the outcome of patients in SIRS, liver function was investigated. Mice were sacrificed 24 hours after CLP and plasma levels of ALT, an enzyme that increases with loss of liver function, were measured. In sham-treated mice, i.e., abdominal incision without cecal ligation and puncture, no elevation of ALT was observed.
Liver failure is a common sequalae of severe sepsis. Treatment with the CXCR1/2 pepducins right after CLP reduced liver damage as evidenced by decreases of 52-87% in liver enzyme levels (AST, ALT) whereas the CXCR4 pepducin, x4pal-i1, had no effect. When CXCR1/2 pepducin treatment was initiated 8 h after CLP, the rise in plasma AST and ALT levels were halted by the 16 h time point and then dropped to near normal levels.

[10] = tested on: mice subjected to cecal ligation and puncture (CLP); assay: Cecal ligation and puncture (CLP) sepsis: survival and body weight; type: in vivo
Procedure: The time point selected for treatment is at the induction of non-lethal sepsis by cecal ligation and puncture (CLP). After an initial dose of 2.5 mg/kg, 1 mg/kg pepducin (or vehicle) was injected into the mice subcutaneously each day for six days. *: Four mice out of the vehicle-treated group were sacrificed after six days; #: one mouse out of the groups treated with x1/2i1LCA10 pepducin was sacrificed on day 6, and all remaining surviving mice were sacrificed at 17 days. […] In the left panel, mice were treated with x1/2pal16, x1/2i1LCA10 or vehicle (20% DMSO) at the time point of CLP. In the right panel, mice were monitored for body weight every day.
There are only few reports where treatment of sepsis is sufficient, even after the onset of systemic inflammatory response syndrome. […] The time point selected for treatment is […] the induction of non-lethal sepsis by cecal ligation and puncture (CLP). […] In the right panel, mice were monitored for their body weight every day.
CLP was performed on 6 to 8 week old female CF-1 mice. […] In the left panel, mice were monitored for body weight every day. […]
The diagnosis of sepsis is often delayed and agents cannot be readily administered in a preventative mode, therefore pepducin treatment was withheld until 8 h after the CLP procedure. […]

[11] = biological target: CXCR4 (Mus musculus, UniProt P70658)
CXCR4 (Mus musculus, UniProt P70658), sequence (P70658 whole entry): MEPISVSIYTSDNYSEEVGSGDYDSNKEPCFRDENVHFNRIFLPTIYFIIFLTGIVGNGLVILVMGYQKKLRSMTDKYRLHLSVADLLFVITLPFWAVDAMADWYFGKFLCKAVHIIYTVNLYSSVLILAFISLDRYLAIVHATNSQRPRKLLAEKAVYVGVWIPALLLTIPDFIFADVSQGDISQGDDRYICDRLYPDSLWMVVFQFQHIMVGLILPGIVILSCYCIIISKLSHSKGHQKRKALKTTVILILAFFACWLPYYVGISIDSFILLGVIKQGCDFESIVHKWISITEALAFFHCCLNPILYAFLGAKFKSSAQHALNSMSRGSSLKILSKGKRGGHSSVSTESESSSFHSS

[12] = tested on: OVCAR-4 human ovarian cancer cells; assay: Chemotaxis assay (20 h, 48 blindwell microchemotaxis chamber) toward NIH3T3 conditioned media, OVCAR-4; type: cell-based; conditions: OVCAR-4, NIH3T3 conditioned media, FIG. 27
Procedure: (§2) Conditioned media was prepared from NIH3T3. Chemotaxis assays (20 h) were performed using a 48 blindwell microchemotaxis chamber (Neuroprobe) equipped with […] pore nitrocellulose filters for OVCAR-4 human ovarian cancer cells and MDA-MB-231 human breast cancer cells. Data is expressed as chemotaxis index which is the ratio between the distance of migration toward NIH3T3 conditioned media over migration toward RPMI medium alone.

[13] = tested on: MDA-MB-231 human breast cancer cells; assay: Chemotaxis assay (20 h, 48 blindwell microchemotaxis chamber) toward NIH3T3 conditioned media, MDA-MB-231; type: cell-based; conditions: MDA-MB-231, NIH3T3 conditioned media, FIG. 27
Procedure: as §2

[14] = thioglycollate i.p., pepducin i.v., 4 hours

NCC[C@H](NC(=O)[C@H](Cc1ccc(F)c(F)c1)NC(=O)Nc1ccc2c(CN3CCCC3)cn(Cc3c(Cl)cccc3Cl)c2c1)C(=O)NCc1ccccc1 [RWJ-56110]
thrombin activation of PAR4-dependent aggregation [1]: regained full activation

CXCR1/CXCR2 i1 loop pepducin, sequence YSRVGRSVTD, lithocholate lipid modification (SEQ ID NO 20, 23) (also: lithocholate lipid modification) [x1/2i1LCA10]
lung fibrin deposition (histology) ([2]; lungs harvested at 48 h after CLP): significant protection against fibrin deposition | neutrophils in bronchioalveolar lavage (BAL) fluid ([2]; treatment at 8 h after CLP): rapid drop | peripheral leukocyte count [3]: neither x1/2pal-i3 nor x1/2LCA-i1 altered the leukocyte count | bleeding time ([4]; 24 h after CLP, immediate onset of treatment): normal bleeding times | D-dimer levels ([4]; 48 hours after CLP): significant reductions | migration of leukocytes towards SDF-1α [5]: does not inhibit migration | peripheral blood leukocyte levels [6]: remained in the normal range | peripheral blood leukocyte levels ([6]; listed as x1/2LCA-i1): within the normal range | inhibition of CXCR4 [7]: does not inhibit CXCR4 | IC50, inhibition of transmigration of neutrophils into the peritoneal cavity [8, 14]: 0.15 mg/kg | transmigration of neutrophils into the peritoneal cavity [8, 14]: completely inhibited | plasma levels of ALT [9]: an increase was observed but it was significantly less compared to vehicle treated mice | sepsis-induced mortality ([10]; pepducin immediately after CLP, 2.5 mg/kg then 1 mg/kg until day 6): highly significant decrease | migration of leukocytes towards SDF-1α [11]: does not inhibit migration

CXCR4 i1 loop pepducin, CXCR4 antagonist; x4i1pal12 is MGYQKKLRSMTD with palmitate (SEQ ID NO 25) (also: palmitate) [x4pal-i1]
peripheral leukocyte count [3]: caused a leukocytosis | peripheral blood leukocyte levels [6]: accelerated leukocytosis on day 1 and leukopenia by day 7 | peripheral blood leukocyte levels ([6]; listed as x4i1pal12): increased immediately, but decreased 5 days after CLP to very low levels | transmigration of neutrophils into the peritoneal cavity [8, 14]: substantial increase | EC50, increase in peritoneal neutrophils ([8]; thioglycollate peritonitis): ~0.1 mg/kg | chemotactic migration of ovarian cancer cells [12]: block chemotactic migration | plasma levels of ALT [9]: an increase in ALT | effect on liver damage, liver enzyme levels (AST, ALT) ([9]; treatment right after CLP): no effect | chemotactic migration of breast cancer cells [13]: block chemotactic migration | effect on survival ([10]; CLP mice): no effect on survival

x1/2pal-i1: I1-loop pepducin based on CXCR1/2; x1/2i1pal12 is ILYSRVGRSVTD with palmitate (SEQ ID NO 18, 21) (also: palmitate)
chemotactic migration of ovarian cancer cells [12]: block chemotactic migration | chemotactic migration of breast cancer cells [13]: block chemotactic migration

— patent US8440627B2, “G protein coupled receptor agonists and antagonists and methods of use” (Tufts Medical Center, Inc., priority 2004, dated 2013)
